Measurements: publication PMC9837035 (Nature Communications, 2023)
Several values for one entry are separate records, joined by “and”; a condition that tells them apart may be missing. Equal values may be shown once.

How the values were obtained:
HUDEP-2 cells = test: Cell viability assay (WST-8), HUDEP-2; assay type: cell-based, human; conditions: for cell viability in HUDEP-2 cells: control (0 μM) = 100; for cytotoxic effect on viability: HUDEP-2, 3 days
Description: (§1) A WST-8 (2-(2-methoxy-4-nitrophenyl)-3-(4-nitrophenyl)-5-(2,4-disulfophenyl)-2H-tetrazolium) assay using a Cell Counting Kit-8 (DOJINDO) was performed to measure cell viability using an EnSpire microplate reader (PerkinElmer).

[1] = system: BGLT3 RNA in HUDEP-2 cells; test: RT-qPCR of BGLT3 in HUDEP-2 cells; assay type: cell-based, human; conditions: for BGLT3 expression in HUDEP-2 cells: relative to DMSO = 1, replicate values; for BGLT3 expression: HUDEP-2
Description: (§2) Total cellular RNA was prepared using the Tissue Total RNA Mini Kit (FAVORGEN), and cDNA was synthesized using ReverTra Ace Master Mix (TOYOBO). Expression of target genes was analyzed using THUNDERBIRD SYBR qPCR Mix (TOYOBO) on a CFX Connect Real Time System (Bio-Rad). The qPCR data were acquired on CFX Maestro (Bio-Rad). Primers are listed in Supplementary Table 10. GAPDH was used as a reference. Primers were purchased from INTEGRATED DNA TECHNOLOGIES or FASMAC.

H3K9me2 in HUDEP-2 cells = test: Western blotting of H3K9me2 in HUDEP-2 cells; assay type: cell-based, human; conditions: HUDEP-2, 4 days
Description: Preparation of cell lysates and western blotting were performed as described previously. Protein from cells lysates in lysis buffer (50 mM Tris-HCl (pH 7.5), 150 mM NaCl, 5 mM EDTA, 0.1% NP-40, 1 mM dithiothreitol) were separated by sodium dodecyl sulfate–polyacrylamide gel electrophoresis (SDS-PAGE) and transferred to a polyvinylidene difluoride (PVDF) membrane (Millipore) by electroblotting. The membranes incubated with primary antibodies overnight at 4 °C and secondary antibodies for 1 h at room temperature. The immune complexes were detected with the Immobilon Western Chemiluminescent HRP Substrate (Millipore). Luminescence was analyzed on a FUSION SOLO S (Vilber). Western blot bands were visualized using Evolution Capt software (M&S Instruments Inc.). Primary antibodies used were anti-G9a (1:1000, CST, #3306), anti–α-tubulin (1:5000, Abcam, ab18251), anti-H3K9me2 (1:3000, Abcam, ab1220), anti-H3 (1:5000, Abcam, ab1791), anti-H3K27me3 (1:3000, Sigma, 07-449), anti-GLP (1:1000, CST, #35005), anti-FLAG (100 ng/ml, Fujifilm, 01422383), anti-His (1:5000, MBL, PM032), anti-BCL11A (1:1000, abcam, ab19487), anti-ZBTB7A (1:1000, CST, #50565), anti-CHD3 (1:1000, Novus Biologicals, NB100-60412), and anti-CHD4 (1:1000, abcam, ab240640). Uncropped scans of all of the blots are available in Source Data file.

[2] = system: β- and γ-globin genes in HUDEP-2 cells; test: RT-qPCR of β- and γ-globin in HUDEP-2 cells; assay type: cell-based, human; conditions: for β-globin expression in HUDEP-2 cells / γ-globin expression in HUDEP-2 cells: relative to DMSO = 1, replicate values; for γ-globin mRNA level: HUDEP-2
Description: as §2

NSD3 = biological target: T1, NSD3 (Homo sapiens, UniProt Q9BZ95); test: Radioisotope-based methyltransferase assay (selectivity); assay type: biochemical
T1 construct: purchased Reaction Biology
T1 sequence (Q9BZ95 1-1437): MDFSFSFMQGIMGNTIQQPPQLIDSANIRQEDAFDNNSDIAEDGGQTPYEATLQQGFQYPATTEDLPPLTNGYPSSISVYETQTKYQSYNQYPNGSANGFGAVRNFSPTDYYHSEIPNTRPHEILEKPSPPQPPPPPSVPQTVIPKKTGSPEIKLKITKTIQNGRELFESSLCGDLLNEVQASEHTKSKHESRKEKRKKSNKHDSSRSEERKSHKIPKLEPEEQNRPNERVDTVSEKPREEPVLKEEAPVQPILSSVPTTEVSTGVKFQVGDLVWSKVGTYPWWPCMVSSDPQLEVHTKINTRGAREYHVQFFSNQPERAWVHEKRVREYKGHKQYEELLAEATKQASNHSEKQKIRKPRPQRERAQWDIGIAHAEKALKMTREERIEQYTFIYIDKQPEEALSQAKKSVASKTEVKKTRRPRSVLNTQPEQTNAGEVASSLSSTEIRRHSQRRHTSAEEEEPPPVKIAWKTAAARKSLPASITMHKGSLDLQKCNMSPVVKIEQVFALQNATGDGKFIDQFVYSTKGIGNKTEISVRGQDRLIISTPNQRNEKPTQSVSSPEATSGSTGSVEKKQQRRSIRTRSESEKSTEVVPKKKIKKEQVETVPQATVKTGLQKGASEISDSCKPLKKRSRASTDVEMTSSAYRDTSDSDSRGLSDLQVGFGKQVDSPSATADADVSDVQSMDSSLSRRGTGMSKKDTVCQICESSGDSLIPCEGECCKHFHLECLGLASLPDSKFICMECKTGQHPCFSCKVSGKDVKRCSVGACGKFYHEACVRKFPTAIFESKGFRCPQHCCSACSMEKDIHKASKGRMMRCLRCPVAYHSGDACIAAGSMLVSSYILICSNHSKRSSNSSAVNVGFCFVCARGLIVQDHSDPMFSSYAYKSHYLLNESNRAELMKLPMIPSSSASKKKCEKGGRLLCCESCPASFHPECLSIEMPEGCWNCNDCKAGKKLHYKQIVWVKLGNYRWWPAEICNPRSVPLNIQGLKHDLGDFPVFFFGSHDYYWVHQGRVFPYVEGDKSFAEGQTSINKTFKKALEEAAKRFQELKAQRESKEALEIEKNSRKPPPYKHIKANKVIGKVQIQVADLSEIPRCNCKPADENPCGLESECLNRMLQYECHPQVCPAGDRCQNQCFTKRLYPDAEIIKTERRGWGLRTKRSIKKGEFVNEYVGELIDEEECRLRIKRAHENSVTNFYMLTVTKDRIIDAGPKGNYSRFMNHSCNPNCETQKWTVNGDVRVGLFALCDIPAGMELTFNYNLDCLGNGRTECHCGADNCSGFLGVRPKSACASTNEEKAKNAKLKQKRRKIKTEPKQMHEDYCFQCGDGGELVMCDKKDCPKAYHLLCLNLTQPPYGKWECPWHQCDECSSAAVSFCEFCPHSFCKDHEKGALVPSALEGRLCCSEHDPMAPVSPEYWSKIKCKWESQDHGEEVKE

ASH1L = biological target: T2, ASH1L (Homo sapiens, UniProt Q9NR48); test: as above; assay type: biochemical; conditions: IC50, ASH1L
T2 construct: purchased Reaction Biology

PRDM9 = biological target: T3, PRDM9 (Homo sapiens, UniProt Q9NQV7); test: as above; assay type: biochemical
T3 construct: purchased Reaction Biology

[3] = Cell viability assay (WST-8), HUDEP-2; assay type: cell-based, human; conditions: human, HUDEP-2 cells, control (0 μM) = 100
Description: as §1

[4] = Cell viability assay (WST-8), H9c2; assay type: cell-based, rat; conditions: rat, H9c2 myoblast cells, control (0 μM) = 100
Description: as §1

[5] = system: rat myoblast cell line H9c2; test: Cell viability assay (WST-8), H9c2; assay type: cell-based; conditions: control (0 μM) = 100
Description: as §1

mice = test: Mouse acute toxicity assay, survival; assay type: in vivo; conditions: intravenous, 2-week observation
Description: All animal studies were approved by the Institutional Committee for Animal Experiments of the Institute of Microbial Chemistry, and were performed in accordance with relevant guidelines and regulations to minimize animal suffering. Four-week-old female ICR mice were purchased from Charles River Breeding Laboratories (Yokohama, Japan) and maintained in a specific pathogen-free barrier facility. […] Samples were dissolved in saline containing 10% DMSO and 1% Tween 80 and injected intravenously into mice.

T3 sequence (Q9NQV7 whole entry): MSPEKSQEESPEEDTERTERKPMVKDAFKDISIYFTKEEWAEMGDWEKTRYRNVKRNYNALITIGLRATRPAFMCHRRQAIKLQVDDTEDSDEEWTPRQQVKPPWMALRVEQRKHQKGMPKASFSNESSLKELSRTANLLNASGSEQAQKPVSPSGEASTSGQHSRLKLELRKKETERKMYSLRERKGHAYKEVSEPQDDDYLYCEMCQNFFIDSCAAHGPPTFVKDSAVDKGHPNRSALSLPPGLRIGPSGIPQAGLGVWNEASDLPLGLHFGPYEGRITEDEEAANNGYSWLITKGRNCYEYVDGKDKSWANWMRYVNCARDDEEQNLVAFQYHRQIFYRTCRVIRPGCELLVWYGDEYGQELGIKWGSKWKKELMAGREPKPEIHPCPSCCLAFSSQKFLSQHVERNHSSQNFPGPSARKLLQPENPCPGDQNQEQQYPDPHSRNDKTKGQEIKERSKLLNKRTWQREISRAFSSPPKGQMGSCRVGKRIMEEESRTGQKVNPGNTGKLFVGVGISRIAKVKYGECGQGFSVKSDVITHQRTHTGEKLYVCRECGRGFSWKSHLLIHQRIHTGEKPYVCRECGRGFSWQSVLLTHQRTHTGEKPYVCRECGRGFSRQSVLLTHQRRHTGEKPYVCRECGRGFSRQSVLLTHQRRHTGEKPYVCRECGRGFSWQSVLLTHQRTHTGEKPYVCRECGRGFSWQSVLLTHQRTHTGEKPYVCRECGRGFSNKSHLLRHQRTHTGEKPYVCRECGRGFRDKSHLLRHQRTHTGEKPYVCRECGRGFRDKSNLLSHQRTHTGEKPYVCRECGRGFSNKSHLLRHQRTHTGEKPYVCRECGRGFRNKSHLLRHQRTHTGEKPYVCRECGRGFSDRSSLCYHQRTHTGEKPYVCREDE

## COc1cc2c(NC3CCN(C)CC3)cc(-c3ccc(C)o3)nc2cc1OCCCN1CCCC1 [CM-272]
HUDEP-2 cells; 0.123457 μM
  cell viability in HUDEP-2 cells: 108.704 and 95.321 and 98.9654
HUDEP-2 cells
  cytotoxic effect on viability: severe cell toxicity
[1]; 0.01 μM
  BGLT3 expression in HUDEP-2 cells: 1.264 and 1.918 and 0.9309
[1]; 0.03 μM
  BGLT3 expression in HUDEP-2 cells: 0.9121 and 1.179 and 0.9824
[1]; 0.1 μM
  BGLT3 expression in HUDEP-2 cells: 0.6878 and 0.8395 and 1.055
[1]; 0.3 μM
  BGLT3 expression in HUDEP-2 cells: 4.167 and 3.251 and 2.85
[1]; 1 μM
  BGLT3 expression in HUDEP-2 cells: 9.88 and 9.285 and 7.11
[1]
  BGLT3 expression: induced the expression of both BGLT3 and γ-globin
H3K9me2 in HUDEP-2 cells
  cellular H3K9me2 levels: reduction of H3K9me2 levels
[2]; 0.01 μM
  β-globin expression in HUDEP-2 cells: 1.0071 and 1.036 and 1.465
  γ-globin expression in HUDEP-2 cells: 1.193 and 1.0465 and 1.534
[2]; 0.03 μM
  β-globin expression in HUDEP-2 cells: 0.9553 and 1.237 and 1.08
  γ-globin expression in HUDEP-2 cells: 1.464 and 1.528 and 1.418
[2]; 0.1 μM
  β-globin expression in HUDEP-2 cells: 1.5931 and 1.663 and 1.768
  γ-globin expression in HUDEP-2 cells: 5.304 and 3.7722 and 4.868
[2]; 0.3 μM
  β-globin expression in HUDEP-2 cells: 1.078 and 1.725 and 1.22
  γ-globin expression in HUDEP-2 cells: 5.583 and 7.681 and 5.641
[2]; 1 μM
  β-globin expression in HUDEP-2 cells: 1.093 and 1.321 and 1.148
  γ-globin expression in HUDEP-2 cells: 3.245 and 3.178 and 3.329
[2]
  γ-globin mRNA level: induced the expression of both BGLT3 and γ-globin

## CN1C(=O)[C@@]23C[C@]4([C@]56C[C@@]78SS[C@@](CO)(C(=O)N7[C@H]5Nc5ccccc56)N(C)C8=O)c5ccccc5N[C@@H]4N2C(=O)[C@]1(CO)SS3 [Chaetocin, reference compound]
NSD3; IC50, NSD3, 1 μM SAM
  IC50: 150 nM
NSD3; IC50, NSD3, RK-701 in duplicate
  IC50: 150 nM
ASH1L; 1 μM SAM
  IC50: 93 nM
ASH1L; RK-701 in duplicate
  IC50: 92.8 nM
PRDM9; IC50, PRDM9, 1 μM SAM
  IC50: 13400 nM
PRDM9; IC50, PRDM9, RK-701 in duplicate
  IC50: 13400 nM

## COc1cc2c(NC3CCN(C(C)C)CC3)nc(C3CCCCC3)nc2cc1OCCCN1CCCC1 [UNC0638]
[3]; 0.00457247 μM
  viability at 0.00457247 μM: 97.7%
[3]; 0.0137174 μM
  viability at 0.0137174 μM: 96.8%
[3]; 0.0411523 μM
  viability at 0.0411523 μM: 103%
[3]; 0.123457 μM
  viability at 0.123457 μM: 98.7%
[3]; 0.37037 μM
  viability at 0.37037 μM: 83.3%
[3]; 1.11111 μM
  viability at 1.11111 μM: 36%
[3]; 10 μM
  viability at 10 μM: 2.19%
HUDEP-2 cells; 0.00457247 μM
  cell viability in HUDEP-2 cells: 93.1765 and 99.8296
HUDEP-2 cells; 0.0137174 μM
  cell viability in HUDEP-2 cells: 92.549 and 98.1261
HUDEP-2 cells; 0.0411523 μM
  cell viability in HUDEP-2 cells: 91.9216 and 96.0818
HUDEP-2 cells; 0.123457 μM
  cell viability in HUDEP-2 cells: 90.9804 and 93.0153
HUDEP-2 cells; 0.37037 μM
  cell viability in HUDEP-2 cells: 82.1961 and 79.7274
HUDEP-2 cells; 1.11111 μM
  cell viability in HUDEP-2 cells: 35.1373 and 35.4344
HUDEP-2 cells; 10 μM
  cell viability in HUDEP-2 cells: 4.078 and 3.407
HUDEP-2 cells
  cytotoxic effect on viability: severe cell toxicity
[1]; 0.01 μM
  BGLT3 expression in HUDEP-2 cells: 1.173 and 1.9605 and 1.436
[1]; 0.03 μM
  BGLT3 expression in HUDEP-2 cells: 1.045 and 1.983 and 1.934
[1]; 0.1 μM
  BGLT3 expression in HUDEP-2 cells: 1.162 and 3.201 and 2.863
[1]; 0.3 μM
  BGLT3 expression in HUDEP-2 cells: 3.578 and 5.267 and 5.078
[1]
  BGLT3 expression: induced the expression of both BGLT3 and γ-globin
H3K9me2 in HUDEP-2 cells
  cellular H3K9me2 levels: reduction of H3K9me2 levels
[2]; 0.01 μM
  β-globin expression in HUDEP-2 cells: 1.0792 and 0.9641 and 1.119
  γ-globin expression in HUDEP-2 cells: 2.161 and 1.8663 and 1.942
[2]; 0.03 μM
  β-globin expression in HUDEP-2 cells: 0.8727 and 0.8955 and 0.9796
  γ-globin expression in HUDEP-2 cells: 2.931 and 2.632 and 2.938
[2]; 0.1 μM
  β-globin expression in HUDEP-2 cells: 0.7919 and 0.6648 and 0.9576
  γ-globin expression in HUDEP-2 cells: 3.187 and 2.85 and 3.299
[2]; 0.3 μM
  β-globin expression in HUDEP-2 cells: 0.6454 and 0.4522 and 0.612
  γ-globin expression in HUDEP-2 cells: 4.136 and 2.987 and 3.803
[2]
  γ-globin mRNA level: induced the expression of both BGLT3 and γ-globin
[4]; 0.156 μM
  viability at 0.156 μM: 90.4%
[4]; 0.625 μM
  viability at 0.625 μM: 92.4%
[5]; 0.039 μM
  cell viability in H9c2 cells: 83.333 and 114.948 and 83.569
[5]; 0.156 μM
  cell viability in H9c2 cells: 95.490 and 88.952
[5]; 0.625 μM
  cell viability in H9c2 cells: 87.887 and 83.853
mice; 1.5625 mg/kg
  Number of alive mice: 3/3
mice; 3.125 mg/kg
  Number of alive mice: 3/3
mice; 6.25 mg/kg
  Number of alive mice: 0/3
mice; 12.5 mg/kg
  Number of alive mice: 0/3
mice; 25 mg/kg
  Number of alive mice: 0/3
